Reference: patent US6924276B2, “Diacid-substituted heteroaryl derivatives as matrix metalloproteinase inhibitors” (Warner-Lambert Company, priority 2001, dated 2005)

Key:
[1] = biological target: MMP-13CD (catalytic domain of collagenase-3) (Homo sapiens, UniProt P45452); experiment: thiopeptolide substrate hydrolysis assay, MMP-13CD; assay type: biochemical
Excerpt: (§1) The invention compounds of Formula I have been evaluated in standard assays for their ability to inhibit the activity of various MMP enzymes. The assays used to evaluate the biological activity of the invention compounds are well known and routinely used by those skilled in the study of MMP inhibitors and their use to treat clinical conditions.
(§2) Such assays are described in detail by Ye et al., in Biochemistry, 1992;31(45):11231-11235, which is incorporated herein by reference.
(§3) Thiopeptolide substrates show virtually no decomposition or hydrolysis in the absence of a matrix metalloproteinase enzyme. A typical thiopeptolide substrate commonly utilized for assays is Ac-Pro-Leu-Gly-thioester;-Leu-Leu-Gly-OEt. A 100 μL assay mixture will contain 50 mM of 2-morpholinoethane sulfonic acid monohydrate (MES, pH 6.0) 10 mM CaCl2, 100 μM thiopeptolide substrate, and 1 mM 5,5′-dithio-bis-(2-nitro-benzoic acid) (DTNB). The thiopeptolide substrate concentration is varied from 10 to 800 μM to obtain Km and Kcat values. The change in absorbance at 405 nm is monitored on a Thermo Max microplate reader (Molecular Devices, Menlo Park, Calif.) at room temperature (22° C.). The calculation of the amount of hydrolysis of the thiopeptolide substrate is based on E412=13600 m^−1 cm^−1 for the DTNB-derived product 3-carboxy-4-nitrothiophenoxide. Assays are carried out with and without matrix metalloproteinase inhibitor compounds, and the amount of hydrolysis is compared for a determination of inhibitory activity of the test compounds.
Several representative compounds have been evaluated for their ability to inhibit various matrix metalloproteinase enzymes. The invention compounds are uniquely active in inhibiting MMP-13. Table 1 below presents inhibitory activity for invention compounds in the column labelled “MMP-13CD IC50, μM”. In the table, MMP-13CD refers to the catalytic domain of collagenase-3. It has been shown previously (Ye Qi-Zhuang, Hupe D., Johnson L., Current Medicinal Chemistry, 1996;3:407-418) that inhibitor activity against a catalytic domain of an MMP is predictive of the inhibitor activity against the respective full-length enzyme. Test compounds were evaluated at various concentrations in order to determine their respective IC50 values, the micromolar concentration of compound required to cause a 50% inhibition of the hydrolytic activity of the respective enzyme.

MMP-7 = biological target: T1, MMP-7 (Homo sapiens, UniProt P09237); experiment: thiopeptolide substrate hydrolysis assay, MMP-7; assay type: biochemical; settings: Table 2
T1 sequence (P09237 95-267): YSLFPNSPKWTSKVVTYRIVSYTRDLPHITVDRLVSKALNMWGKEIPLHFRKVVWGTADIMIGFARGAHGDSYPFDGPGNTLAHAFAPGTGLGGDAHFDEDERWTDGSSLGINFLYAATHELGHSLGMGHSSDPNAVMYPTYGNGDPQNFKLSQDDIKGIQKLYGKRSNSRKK
Excerpt: as §1, §2, §3
(§4) The invention compounds are also selective inhibitors of MMP-13 versus other MMP enzymes, including versus MMP-7 and MMP-9. This is shown by comparing the IC50 data presented below in Table 2 in the columns labeled “MMP-7 IC50 (μM),” “MMP-9CD IC50 (μM),” and “MMP-13CD IC50 (μM),” respectively.

MMP-9CD = biological target: T2, MMP-9CD (Homo sapiens, UniProt P14780); experiment: thiopeptolide substrate hydrolysis assay, MMP-9CD; assay type: biochemical; settings: Table 2, catalytic domain
T2 construct: "MMP-9CD"
T2 sequence (P14780 with tags, fused parts or gaps DEL216-390 limits assumed): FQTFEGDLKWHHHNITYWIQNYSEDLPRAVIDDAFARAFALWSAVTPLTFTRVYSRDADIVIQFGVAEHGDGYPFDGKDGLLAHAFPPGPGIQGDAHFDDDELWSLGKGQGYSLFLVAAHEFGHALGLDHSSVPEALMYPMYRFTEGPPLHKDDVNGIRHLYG
Excerpt: as §1, §2, §3, §4

IC50 ([1]; Table 1) [µM]	IC50 (MMP-7) [µM]	IC50 (MMP-9CD) [µM]	melting point [°C]	IC50 ([1]; Table 2) [µM]	Structure (SMILES)
0.19	–	–	–	–	Cc1sc(C(=O)OCc2ccc3c(c2)OCO3)cc1NC(=O)Cc1ccccc1 [Example 11, 5-Methyl-4-phenylacetylamino-thiophene-2-carboxylic Acid 1,3-benzodioxol-5-ylmethyl Ester]
0.85	30	30	207 to 209	–	O=C(NCc1ccc2c(c1)OCO2)c1ccc(C(=O)NCc2ccc3c(c2)OCO3)s1 [Example 2, Thiophene-2,5-dicarboxylic Acid bis-[(1,3-benzodioxol-5-ylmethyl)-amide]]
≥ 100	–	–	–	–	COc1cc(C(=O)NCc2ccccc2)sc1C(=O)NCc1ccccc1 [Example 22, 3-Methoxy-thiophene-2,5-dicarboxylic Acid Bis Benzylamide]
2	–	–	185 to 187	–	COC(=O)c1cc(NC(=O)NCc2ccccc2)c(C)s1 [Example 16, 5-Methyl-4-(3-benzyl-ureido)-thiophene-2-carboxylic Acid Methyl Ester]
0.2	30	–	191 to 195	–	COc1cc(C(=O)NCc2ccc3c(c2)OCO3)sc1C(=O)NCc1ccc2c(c1)OCO2 [Example 4, 3-Methoxy-thiophene-2,5-dicarboxylic Acid bis-[(1,3-benzodioxol-5-ylmethyl)-amide]]
3.4	–	–	–	–	CNc1sc(C(=O)NCc2ccc(OC)cc2)cc1C(=O)NCc1ccc(C(=O)O)c(C)c1 [Example 21, 4-({[5-(4-Methoxy-benzylcarbamoyl)-2-methylamino-thiophene-3-carbonyl]-amino}-methyl)-2-methyl-benzoic Acid]
0.37	32	–	174 to 175	–	O=C(NCc1ccc2c(c1)OCO2)c1csc(C(=O)NCc2ccc3c(c2)OCO3)c1 [Example 6, Thiophene-2,4-dicarboxylic Acid bis-[(1,3-benzodioxol-5-ylmethyl)-amide]]
30	–	–	188 to 192	–	O=C(NCc1ccccc1)Nc1nnc(C(=O)OCc2ccccc2)s1 [Example 23, 5-(3-Benzyl-ureido)-1,3,4-thiadiazole-2-carboxylic Acid Benzyl Ester]
0.92	45	30	194 to 195	–	Cc1sc(C(=O)NCc2ccc3c(c2)OCO3)cc1NC(=O)NCc1ccccc1 [Example 15b, 4-(3-Benzyl-ureido)-5-methyl-thiophene-2-carboxylic Acid (1,3-benzodioxol-5-ylmethyl)-amide]
0.97	–	–	103 to 110	–	Cn1cc(C(=O)OCc2ccc3c(c2)OCO3)cc1C(=O)OCc1ccc2c(c1)OCO2 [Example 7, 1-Methyl-1H-pyrrole-2,4-dicarboxylic Acid di-1,3-benzodioxol-5-ylmethyl Ester]
30	–	30	–	–	Cc1sc(C(=O)NCc2ccccc2)cc1NC(=O)Cc1ccccc1 [Example 10, 5-Methyl-4-phenylacetylamino-thiophene-2-carboxylic Acid Benzylamide]
8.6	–	–	141 to 148	–	O=C(OCc1ccc2c(c1)OCO2)c1ccc(C(=O)OCc2ccc3c(c2)OCO3)s1 [Example 1, Thiophene-2,5-dicarboxylic Acid di-1,3-benzodioxol-5-ylmethyl Ester]
14	–	99	–	–	Cc1sc(C(=O)NCc2ccccc2)cc1NC(=O)NCc1ccccc1 [Example 14, 4-(3-Benzyl-ureido)-5-methyl-thiophene-2-carboxylic Acid Benzylamide]
–	–	–	216 to 217	0.35	Cc1sc(C(=O)OCc2ccc3c(c2)OCO3)cc1NC(=O)NCc1ccccc1 [Example 15a, 4-(3-Benzyl-ureido)-5-methyl-thiophene-2-carboxylic Acid 1,3-benzodioxol-5-ylmethyl Ester]
3.6	–	–	153 to 155	–	COc1cc(C(=O)OCc2ccc3c(c2)OCO3)sc1C(=O)OCc1ccc2c(c1)OCO2 [Example 3, 3-Methoxy-thiophene-2,5-dicarboxylic Acid di-1,3-benzodioxol-5-ylmethyl Ester]
0.45	10	30	164 to 165	–	O=C(OCc1ccc2c(c1)OCO2)c1csc(C(=O)OCc2ccc3c(c2)OCO3)c1 [Example 5, Thiophene-2,4-dicarboxylic Acid di-1,3-benzodioxol-5-ylmethyl Ester]
2.7	–	–	138 to 140	–	Cc1sc(C(=O)NCc2ccc3c(c2)OCO3)cc1NC(=O)Cc1ccccc1 [Example 12, 5-Methyl-4-phenylacetylamino-thiophene-2-carboxylic Acid (1,3-benzodioxol-5-ylmethyl)-amide]
3	–	–	147 to 152	–	Cn1cc(C(=O)NCc2ccc3c(c2)OCO3)cc1C(=O)NCc1ccc2c(c1)OCO2 [Example 8, 1-Methyl-1H-pyrrole-2,4-dicarboxylic Acid bis-[(1,3-benzodioxol-5-ylmethyl)-amide]]
22	30	30	208 to 209	–	Cc1sc(C(=O)OCc2ccccc2)cc1NC(=O)NCc1ccccc1 [Example 13, 4-(3-Benzyl-ureido)-5-methyl-thiophene-2-carboxylic Acid Benzyl Ester]
2.3	–	–	173 to 174	–	Cc1sc(C(=O)OCc2ccccc2)cc1NC(=O)Cc1ccccc1 [Example 9, 5-Methyl-4-phenylacetylamino-thiophene-2-carboxylic Acid Benzyl Ester]
